The values below come from US9708308B2, “Factor IXa inhibitors” (Merck Sharp & Dohme Corp., priority 2012, dated 2017).

SMILES strings stand for the structures. pIC50: −log10 of the molar value.

The experiment deals with Factor IXa (Homo sapiens, UniProt P00740). The experiment in a line: Determination of inhibitory activity against Factor IXa (cleavage of fluorescent peptide substrate). It counts as biochemical. The conditions noted are these: cleavage of fluorescent peptide CH3SO2-D-CHG-Gly-Arg-AFC, release of AFC; read-out: FIXa IC50. The essentials: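 Factor IXa activity followed via cleavage of CH3SO2-D-CHG-Gly-Arg-AFC, releasing AFC. Fluorescence read at excitation 405 nm, emission 510 nm.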
Chain of Factor IXa (P00740 227-461 limits assumed): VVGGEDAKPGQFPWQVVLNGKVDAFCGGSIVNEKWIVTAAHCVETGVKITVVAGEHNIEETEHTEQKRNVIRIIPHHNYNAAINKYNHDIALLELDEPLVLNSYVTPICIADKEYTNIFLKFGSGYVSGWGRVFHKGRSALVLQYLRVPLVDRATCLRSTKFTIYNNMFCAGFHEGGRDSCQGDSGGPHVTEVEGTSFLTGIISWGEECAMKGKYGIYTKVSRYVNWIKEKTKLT
Chain of Factor IXa (P00740 47-191 partner limits assumed): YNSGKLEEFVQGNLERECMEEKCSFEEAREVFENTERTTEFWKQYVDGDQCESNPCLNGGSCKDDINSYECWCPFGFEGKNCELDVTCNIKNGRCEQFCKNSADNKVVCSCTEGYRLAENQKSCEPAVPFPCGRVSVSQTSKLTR
In the case of `COc1cc(-n2ccc(N3CCO[C@H]([C@@](C)(O)C(=O)Nc4ccc5[nH]c(C)c(Cl)c5c4)C3=O)n2)ccn1` [Example 145, (R)—N-(3-chloro-2-methyl-1H-indol-5-yl)-2-hydroxy-2-((R)-4-(1-(2-methoxypyridin-4-yl)-1H-pyrazol-3-yl)-3-oxomorpholin-2-yl)propanamide], the pIC50 was 5.96. The figure for `Cc1[nH]c2ccc(NC(=O)[C@](C)(O)[C@H]3OCCN(c4ccn(-c5ccnnc5)n4)C3=O)cc2c1Cl` [Example 146, (R)—N-(3-chloro-2-methyl-1H-indol-5-yl)-2-hydroxy-2-((R)-3-oxo-4-(1-(pyridazin-4-yl)-1H-pyrazol-3-yl)morpholin-2-yl)propanamide] is 7.55. The figure for `C[C@](O)(C(=O)Nc1ccc2c(N)noc2c1)[C@@]1(C)OCCN(c2ccn(-c3ccnnc3)n2)C1=O` [Example 148, (R)—N-(3-Aminobenzo[d]isoxazol-6-yl)-2-hydroxy-2-((R)-2-methyl-3-oxo-4-(1-(pyridazin-4-yl)-1H-pyrazol-3-yl)morpholin-2-yl)propanamide] is 7.20; for `COc1cc(-n2ccc(N3CCO[C@](C)([C@@](C)(O)C(=O)Nc4ccc5c(N)noc5c4)C3=O)n2)cnn1` [Example 149, (R)—N-(3-aminobenzo[d]isoxazol-6-yl)-2-hydroxy-2-((R)-4-(1-(6-methoxypyridazin-4-yl)-1H-pyrazol-3-yl)-2-methyl-3-oxomorpholin-2-yl)propanamide] it is 7.03. Consider `C[C@](O)(C(=O)Nc1ccc(CN)cc1)[C@H]1OCCN(c2ccn(-c3ccncc3)n2)C1=O` [Example 150, (R)—N-(4-(aminomethyl)phenyl)-2-hydroxy-2-((R)-3-oxo-4-(1-(pyridin-4-yl)-1H-pyrazol-3-yl)morpholin-2-yl)propanamide], for which the pIC50 is 7.18. The figure for `C[C@](O)(C(=O)Nc1ccc(CN)c(F)c1)[C@H]1OCCN(c2ccn(-c3ccncc3)n2)C1=O` [Example 151, (R)—N-(4-(aminomethyl)-3-fluorophenyl)-2-hydroxy-2-((R)-3-oxo-4-(1-(pyridin-4-yl)-1H-pyrazol-3-yl)morpholin-2-yl)propanamide] is 7.16; for `C[C@]1([C@@H](O)C(=O)Nc2ccc(CN)cc2)OCCN(c2ccn(-c3ccncc3)n2)C1=O` [Example 152, (R)—N-(4-(aminomethyl)phenyl)-2-hydroxy-2-((R)-2-methyl-3-oxo-4-(1-(pyridin-4-yl)-1H-pyrazol-3-yl)morpholin-2-yl)acetamide] it is 8.01. The figure for `C[C@]1([C@@H](O)C(=O)Nc2ccc(CN)c(F)c2)OCCN(c2ccn(-c3ccncc3)n2)C1=O` [Example 153, (R)—N-(4-(aminomethyl)-3-fluorophenyl)-2-hydroxy-2-((R)-2-methyl-3-oxo-4-(1-(pyridin-4-yl)-1H-pyrazol-3-yl)morpholin-2-yl)acetamide] is 7.90. On to `C[C@@H]1CN(c2ccn(-c3cnnc(C#N)c3)n2)C(=O)[C@@H]([C@@H](O)C(=O)Nc2ccc3c(N)noc3c2)O1` [Example 154, (R)—N-(3-Aminobenzo[d]isoxazol-6-yl)-2-((2R,6R)-4-(1-(6-cyanopyridazin-4-yl)-1H-pyrazol-3-yl)-6-methyl-3-oxomorpholin-2-yl)-2-hydroxyacetamide], for which the pIC50 was 8.70. The figure for `C[C@H]1CN(c2ccn(-c3cnnc(C#N)c3)n2)C(=O)[C@@H]([C@@H](O)C(=O)Nc2ccc3c(N)noc3c2)O1` [Example 155, (R)—N-(3-Aminobenzo[d]isoxazol-6-yl)-2-((2R,6S)-4-(1-(6-cyanopyridazin-4-yl)-1H-pyrazol-3-yl)-6-methyl-3-oxomorpholin-2-yl)-2-hydroxyacetamide] is 8.71. The figure for `CC1(C)CN(c2ccn(-c3cnnc(C#N)c3)n2)C(=O)[C@@H]([C@@H](O)C(=O)Nc2ccc3c(N)noc3c2)O1` [Example 156, (R)—N-(3-Aminobenzo[d]isoxazol-6-yl)-2-((R)-4-(1-(6-cyanopyridazin-4-yl)-1H-pyrazol-3-yl)-6,6-dimethyl-3-oxomorpholin-2-yl)-2-hydroxyacetamide] is 8.77; for `C[C@@H]1CN(c2ccn(-c3ccnnc3)n2)C(=O)[C@@H]([C@@H](O)C(=O)Nc2ccc3c(N)noc3c2)O1` [Example 157, (R)—N-(3-aminobenzo[d]isoxazol-6-yl)-2-hydroxy-2-((2R,6R)-6-methyl-3-oxo-4-(1-(pyridazin-4-yl)-1H-pyrazol-3-yl)morpholin-2-yl)acetamide] it is 8.87; for `C[C@@H]1CN(c2nn(-c3ccnnc3)cc2F)C(=O)[C@@H]([C@@H](O)C(=O)Nc2ccc3c(N)noc3c2)O1` [Example 158, (R)—N-(3-aminobenzo[d]isoxazol-6-yl)-2-((2R,6R)-4-(4-fluoro-1-(pyridazin-4-yl)-1H-pyrazol-3-yl)-6-methyl-3-oxomorpholin-2-yl)-2-hydroxyacetamide] it is 8.36.

Consider `COc1cc(-n2ccc(N3C[C@@H](C)O[C@H]([C@@H](O)C(=O)Nc4ccc5c(N)noc5c4)C3=O)n2)cnn1` [Example 159, (R)—N-(3-aminobenzo[d]isoxazol-6-yl)-2-hydroxy-2-((2R,6R)-4-(1-(6-methoxypyridazin-4-yl)-1H-pyrazol-3-yl)-6-methyl-3-oxomorpholin-2-yl)acetamide], for which the pIC50 is 8.65. With `C[C@H]1CN(c2ccn(-c3ccnnc3)n2)C(=O)[C@@H]([C@@H](O)C(=O)Nc2ccc3c(N)noc3c2)O1` [Example 160, (R)—N-(3-aminobenzo[d]isoxazol-6-yl)-2-hydroxy-2-((2R,6S)-6-methyl-3-oxo-4-(1-(pyridazin-4-yl)-1H-pyrazol-3-yl)morpholin-2-yl)acetamide], the pIC50 was 8.64. Turning to `C[C@H]1CN(c2nn(-c3ccnnc3)cc2F)C(=O)[C@@H]([C@@H](O)C(=O)Nc2ccc3c(N)noc3c2)O1` [Example 161, (R)—N-(3-aminobenzo[d]isoxazol-6-yl)-2-((2R,6S)-4-(4-fluoro-1-(pyridazin-4-yl)-1H-pyrazol-3-yl)-6-methyl-3-oxomorpholin-2-yl)-2-hydroxyacetamide], the pIC50 was 7.49. Consider `COc1cc(-n2ccc(N3C[C@H](C)O[C@H]([C@@H](O)C(=O)Nc4ccc5c(N)noc5c4)C3=O)n2)cnn1` [Example 162, (R)—N-(3-aminobenzo[d]isoxazol-6-yl)-2-hydroxy-2-((2R,6S)-4-(1-(6-methoxypyridazin-4-yl)-1H-pyrazol-3-yl)-6-methyl-3-oxomorpholin-2-yl)acetamide], for which the pIC50 is 8.58. The figure for `C[C@H]1CN(c2ccn(-c3ccncc3)n2)C(=O)[C@@H]([C@@H](O)C(=O)Nc2ccc3c(N)noc3c2)O1` [Example 163, (R)—N-(3-aminobenzo[d]isoxazol-6-yl)-2-hydroxy-2-((2R,6S)-6-methyl-3-oxo-4-(1-(pyridin-4-yl)-1H-pyrazol-3-yl)morpholin-2-yl)acetamide] is 7.95; for `C[C@H]1CN(c2ccn(-c3ccnc(C#N)c3)n2)C(=O)[C@@H]([C@@H](O)C(=O)Nc2ccc3c(N)noc3c2)O1` [Example 164, (R)—N-(3-aminobenzo[d]isoxazol-6-yl)-2-((2R,6S)-4-(1-(2-cyanopyridin-4-yl)-1H-pyrazol-3-yl)-6-methyl-3-oxomorpholin-2-yl)-2-hydroxyacetamide] it is 8.25. The figure for `C[C@@H]1CN(c2ccn(-c3ccnc(C#N)c3)n2)C(=O)[C@@H]([C@@H](O)C(=O)Nc2ccc3c(N)noc3c2)O1` [Example 165, (R)—N-(3-aminobenzo[d]isoxazol-6-yl)-2-((2R,6R)-4-(1-(2-cyanopyridin-4-yl)-1H-pyrazol-3-yl)-6-methyl-3-oxomorpholin-2-yl)-2-hydroxyacetamide] is 8.70.

Consider `C[C@@H]1CN(c2ccn(-c3ccncc3)n2)C(=O)[C@@H]([C@@H](O)C(=O)Nc2ccc3c(N)noc3c2)O1` [Example 166, (R)—N-(3-aminobenzo[d]isoxazol-6-yl)-2-hydroxy-2-((2R,6R)-6-methyl-3-oxo-4-(1-(pyridin-4-yl)-1H-pyrazol-3-yl)morpholin-2-yl)acetamide], for which the pIC50 is 8.47. The figure for `COc1cc(-n2ccc(N3C[C@H](C)O[C@H]([C@@H](O)C(=O)Nc4ccc5c(N)noc5c4)C3=O)n2)ccn1` [Example 167, (R)—N-(3-aminobenzo[d]isoxazol-6-yl)-2-hydroxy-2-((2R,6S)-4-(1-(2-methoxypyridin-4-yl)-1H-pyrazol-3-yl)-6-methyl-3-oxomorpholin-2-yl)acetamide] is 7.75.

Consider `COc1cc(-n2ccc(N3C[C@@H](C)O[C@H]([C@@H](O)C(=O)Nc4ccc5c(N)noc5c4)C3=O)n2)ccn1` [Example 168, (R)—N-(3-aminobenzo[d]isoxazol-6-yl)-2-hydroxy-2-((2R,6R)-4-(1-(2-methoxypyridin-4-yl)-1H-pyrazol-3-yl)-6-methyl-3-oxomorpholin-2-yl)acetamide], for which the pIC50 was 8.23. The figure for `C[C@H]1CN(c2ccn(-c3ccnc(C(F)(F)F)c3)n2)C(=O)[C@@H]([C@@H](O)C(=O)Nc2ccc3c(N)noc3c2)O1` [Example 169, (R)—N-(3-aminobenzo[d]isoxazol-6-yl)-2-hydroxy-2-((2R,6S)-6-methyl-3-oxo-4-(1-(2-(trifluoromethyl)pyridin-4-yl)-1H-pyrazol-3-yl)morpholin-2-yl)acetamide] is 8.05; for `C[C@@H]1CN(c2ccn(-c3ccnc(C(F)(F)F)c3)n2)C(=O)[C@@H]([C@@H](O)C(=O)Nc2ccc3c(N)noc3c2)O1` [Example 170, (R)—N-(3-aminobenzo[d]isoxazol-6-yl)-2-hydroxy-2-((2R,6R)-6-methyl-3-oxo-4-(1-(2-(trifluoromethyl)pyridin-4-yl)-1H-pyrazol-3-yl)morpholin-2-yl)acetamide] it is 8.62. The figure for `COc1cc(-n2ccc(N3CC(C)(C)O[C@H]([C@@H](O)C(=O)Nc4ccc5c(N)noc5c4)C3=O)n2)ccn1` [Example 171, (R)—N-(3-aminobenzo[d]isoxazol-6-yl)-2-hydroxy-2-((R)-4-(1-(2-methoxypyridin-4-yl)-1H-pyrazol-3-yl)-6,6-dimethyl-3-oxomorpholin-2-yl)acetamide] is 7.68.
